Measured values reported in patent US20110190267A1, “PRODRUGS OF OPIOIDS AND USES THEREOF” (priority 2010, published 2011).
Values joined by “and” are separate entries in the source; they are usually repeats but may differ in a detail not shown here. Identical values can stand only once. Like-named read-outs stand apart in the source and are kept apart here.

Test: Pharmacokinetics of nalbuphine or nalbuphine PABA carbamate, rats (Example 42)
Type: in vivo, Wistar rats
Conditions: for half-life: read-out: t½ (converted)
[1] = nalbuphine PABA carbamate in plasma after oral p-aminobenzoic acid carbamate prodrug, 3 mg nalbuphine equivs/kg, male rats, single animal
[2] = nalbuphine in plasma after oral nalbuphine, 3 mg free base equivalents/kg, male rats, single animal

O=C(Nc1ccc(C(=O)O)cc1)Oc1ccc2c3c1O[C@H]1[C@@H](O)CC[C@@]4(O)[C@@H](C2)N(CC2CCC2)CC[C@]314 [nalbuphine PABA carbamate, nalbuphine para amino benzoic acid carbamate]
AUC (male, Wistar, rat, plasma, po, 3 mg nalbuphine free base equivalents/kg, nalbuphine PABA carbamate in plasma after oral p-aminobenzoic acid carbamate prodrug, 3 mg nalbuphine equivs/kg, Mean, read-out: AUC): 11 ng·h/mL | Cmax (male, Wistar, rat, plasma, po, 3 mg nalbuphine free base equivalents/kg, nalbuphine PABA carbamate in plasma after oral p-aminobenzoic acid carbamate prodrug, 3 mg nalbuphine equivs/kg, Mean, read-out: Cmax): 12 ng/mL | Tmax (male, Wistar, rat, plasma, po, 3 mg nalbuphine free base equivalents/kg, nalbuphine PABA carbamate in plasma after oral p-aminobenzoic acid carbamate prodrug, 3 mg nalbuphine equivs/kg, Mean, read-out: Tmax): 15 min | half-life (male, Wistar, rat, plasma, po, 3 mg nalbuphine free base equivalents/kg, nalbuphine PABA carbamate in plasma after oral p-aminobenzoic acid carbamate prodrug, 3 mg nalbuphine equivs/kg, Mean): 48 min | AUC (male, Wistar, rat, plasma, po, 3 mg nalbuphine free base equivalents/kg, nalbuphine PABA carbamate in plasma after oral p-aminobenzoic acid carbamate prodrug, 3 mg nalbuphine equivs/kg, single animal, read-out: AUC): 14 ng·h/mL | Cmax (male, Wistar, rat, plasma, po, 3 mg nalbuphine free base equivalents/kg, nalbuphine PABA carbamate in plasma after oral p-aminobenzoic acid carbamate prodrug, 3 mg nalbuphine equivs/kg, single animal, read-out: Cmax): 16 ng/mL | Tmax (male, Wistar, rat, plasma, po, 3 mg nalbuphine free base equivalents/kg, nalbuphine PABA carbamate in plasma after oral p-aminobenzoic acid carbamate prodrug, 3 mg nalbuphine equivs/kg, single animal, read-out: Tmax): 15 min | AUC [1]: 9.4 ng·h/mL and 11 ng·h/mL | Cmax [1]: 11 ng/mL and 9.2 ng/mL | t½ [1]: 30 min and 48 min and 72 min

Oc1ccc2c3c1O[C@H]1[C@@H](O)CC[C@@]4(O)[C@@H](C2)N(CC2CCC2)CC[C@]314 [nalbuphine]
AUC (male, Wistar, rat, plasma, po, 3 mg nalbuphine free base equivalents/kg, nalbuphine in plasma after oral nalbuphine, 3 mg free base equivalents/kg, Mean, read-out: AUC): 1.2 ng·h/mL | Cmax (male, Wistar, rat, plasma, po, 3 mg nalbuphine free base equivalents/kg, nalbuphine in plasma after oral nalbuphine, 3 mg free base equivalents/kg, Mean, read-out: Cmax): 1 ng/mL | Tmax (male, Wistar, rat, plasma, po, 3 mg nalbuphine free base equivalents/kg, nalbuphine in plasma after oral nalbuphine, 3 mg free base equivalents/kg, Mean, read-out: Tmax): 48 min | half-life (male, Wistar, rat, plasma, po, 3 mg nalbuphine free base equivalents/kg, nalbuphine in plasma after oral nalbuphine, 3 mg free base equivalents/kg, Mean): 84 min | Cmax (male, Wistar, rat, plasma, po, 3 mg nalbuphine free base equivalents/kg, nalbuphine in plasma after oral nalbuphine, 3 mg free base equivalents/kg, single animal, read-out: Cmax): 1.4 ng/mL | Tmax (male, Wistar, rat, plasma, po, 3 mg nalbuphine free base equivalents/kg, nalbuphine in plasma after oral nalbuphine, 3 mg free base equivalents/kg, single animal, read-out: Tmax): 30 min | half-life (male, Wistar, rat, plasma, po, 3 mg nalbuphine free base equivalents/kg, nalbuphine in plasma after oral nalbuphine, 3 mg free base equivalents/kg, single animal): 72 min | T>50%Cmax (nalbuphine in plasma after oral nalbuphine, 3 mg free base equivalents/kg, male rats, Mean): 1.3 h | AUC [2]: 1.8 ng·h/mL and 0.4 ng·h/mL and 1.3 ng·h/mL | Cmax [2]: 0.7 ng/mL and 0.8 ng/mL | T>50%Cmax [2]: 1.5 h and 0.7 h and 1.8 h | Tmax [2]: 60 min | t½ [2]: 96 min
